Assay results reported in patent US20240287093A1, “HIGH ACTIVITY STING PROTEIN AGONIST” (ADLAI NORTYE BIOPHARMA CO., LTD., priority 2018, published 2024).

Legend:
Type in all cases: cell-based
STING variants (WT) = target: T1, STING variants (WT) (Homo sapiens, UniProt Q86WV6); experiment: SEAP reporter assay in HEK-Blue ISG KO-STING cells transfected with STING WT variant (Method 1); conditions: 24 h
T1 construct: host or cells: HEK-Blue ISG KO-STING cells (Invivogen, hkb-kostg)
Source text: (§1) Example I: STING Variants (WT & HAQ) Activation by Compounds in HEK-Blue™ ISG KO-STING Cells (Method 1)
(§2) Activation of STING can be determined using a SEAP reporter assay in HEK-Blue™ ISG KO-STING cells (Invivogen, cat #hkb-kostg) transfected with plasmids expressing STING variants (WT & HAQ) (referred to WO2017/175147A1). STING variants (WT & HAQ) vector were constructed based on STING-232H vector (Origene, RC208418). GFP vector (VT2069) was bought from Youbio. The detailed protocol as follows: HEK-Blue™ ISG KO-STING cells were harvest and seeding into 96 well plate, the final cell number was 0.8×10^5 cells/well. Transfections were prepared using Lipofectamine 2000 (Invitrogen, Cat #11668-027) following the manufacturer's instructions (Lipo2000:DNA=1:10), 20 ul of transfection suspension containing 1 ng STING vector was added to cell culture plate and incubated at 37° C., 5% CO2 for 24 h. After 24 hours incubation, compounds were added at proper concentration, and the final DMSO concentration was 0.5%. After 24 h incubation, the supernatant was collected to detect SEAP signal using Great EscAPe SEAP chemiluminescence KIT (Clontech, cat #631738) and cells were collected to detect cell viability using CellTiter-Glo Luminescent Cell Viability Assay (Promega, cat #G7573) following the manufacturer's instructions. The data were described by the ratio of the stimulating signal of compounds to 0.5% DMSO.

STING variants (HAQ) = target: T2, STING variants (HAQ) (Homo sapiens, UniProt Q86WV6, G230A/R293Q/R71H); experiment: SEAP reporter assay in HEK-Blue ISG KO-STING cells transfected with STING HAQ variant (Method 1); conditions: 24 h
T2 construct: host or cells: HEK-Blue ISG KO-STING cells (Invivogen, hkb-kostg)
T2 sequence (Q86WV6 whole entry R71H/G230A/R293Q): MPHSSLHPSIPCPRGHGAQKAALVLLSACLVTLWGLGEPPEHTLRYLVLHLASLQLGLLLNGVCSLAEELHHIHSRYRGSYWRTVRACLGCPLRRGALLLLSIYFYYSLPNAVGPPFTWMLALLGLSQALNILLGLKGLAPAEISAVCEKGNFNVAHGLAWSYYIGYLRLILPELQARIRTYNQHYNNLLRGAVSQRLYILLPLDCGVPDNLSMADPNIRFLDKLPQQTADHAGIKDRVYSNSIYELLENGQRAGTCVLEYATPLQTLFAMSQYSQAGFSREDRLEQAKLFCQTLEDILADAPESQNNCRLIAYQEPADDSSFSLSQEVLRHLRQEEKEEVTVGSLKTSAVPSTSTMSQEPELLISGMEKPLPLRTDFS
Source text: as §1, §2

STING = target: T3, STING (Homo sapiens, UniProt Q86WV6, G230A/H232R/R293Q/R71H); experiment: IFNβ release from THP1 by STING activation (hIFNβ ELISA); conditions: THP1 cells, 24 h, IFN-β in supernatant; inactive = IFNβ not detected at the maximum concentration of compounds
T3 construct: THP1 was purchased from National Collection of Authenticated Cell Cultures (Cat #TCHu 57); host or cells: THP1
T3 sequence (Q86WV6 whole entry R71H/G230A/H232R/R293Q): as the sequence (Q86WV6 whole entry R71H/G230A/R293Q) above, with H232R counted along it
Procedure: Example III: Compound Stimulate THP1 to Release IFNβ by STING Activation
In this assay, activation of STING by compounds was evaluated by detecting their ability to stimulate the secretion of IFN-β (interferon-beta) from THP1. THP1 was purchased from National Collection of Authenticated Cell Cultures (Cat #TCHu 57). The top dose of compounds was setted according to their solubility. First, Compounds were 3 times diluted with medium, 8-dose points in total. The final DMSO concentration was 0.2%. THP1 during the logarithmic phase was resuspended to 2×10^6 cells/ml in assay medium. The THP1-cell suspension was dispensed into a 96-well U bottom plate containing 50 ul of compound diluted in medium. After 24 h incubation at 37° C., 5% CO2, the supernatant was collected. The concentration of IFN-β in the supernatant was measured using a human IFNβ ELISA KIT (R&D, DY814-05). The data was fitted with GraphPad Prism or XLfit to calculate EC50 values.

[1] = compound concentration 15.65 μM
[2] = compound concentration 169.6 μM

Fold change related to DMSO control, WT (STING variants (WT); compound concentration 25 μM) [fold] | Fold change related to DMSO control, HAQ (STING variants (HAQ); compound concentration 25 μM) [fold] | EC50 (STING) [µM] | Structure (SMILES) | other results
– | – | – | CCn1nc(C)cc1C(=O)Nc1nc2cc(C(N)=O)cc3c2n1C(C)(CO)CO3 (stereo not drawn) [Example 3, 2-(1-Ethyl-3-methyl-1H-pyrazole-5-carboxamido)-3-(hydroxymethyl)-3-methyl-3,4-dihydro-5-oxa-1,2a-diazaacenaphthylene-7-carboxamide] | Fold change related to DMSO control, WT (STING variants (WT); compound concentration 125 μM): 1.79 fold; Fold change related to DMSO control, HAQ (STING variants (HAQ); compound concentration 125 μM): 3.54 fold
– | – | – | CCOC(=O)/C=C/C1(C)COc2cc(C(N)=O)cc3nc(NC(=O)c4cc(C)nn4CC)n1c23 (stereo not drawn) [Example 5, Ethyl (E)-3-(7-carbamoyl-2-(1-ethyl-3-methyl-1H-pyrazole-5-carboxamido)-3-methyl-3,4-dihydro-5-oxa-1,2a-diazaacenaphthylen-3-yl)acrylate] | Fold change related to DMSO control, WT (STING variants (WT); [1]): 1.52 fold; Fold change related to DMSO control, HAQ (STING variants (HAQ); [1]): 1.20 fold
– | – | – | CCn1nc(C)cc1C(=O)Nc1nc2cc(C(N)=O)cc3c2n1[C@@H](CCNC(=O)OC(C)(C)C)CO3 [Example 6, tert-Butyl (S)-(2-(7-carbamoyl-2-(1-ethyl-3-methyl-1H-pyrazole-5-carboxamido)-3,4-dihydro-5-oxa-1,2a-diazaacenaphthylen-3-yl)ethyl)carbamate] | Fold change related to DMSO control, WT (STING variants (WT); [2]): 0.76 fold; Fold change related to DMSO control, HAQ (STING variants (HAQ); [2]): 4.41 fold
1.59 | 27.44 | – | CCn1nc(C)cc1C(=O)Nc1nc2cc(C(N)=O)cc3c2n1[C@@H](CCNC(=O)OCc1ccccc1)CO3 [Example 14, Benzyl (S)-(2-(7-carbamoyl-2-(1-ethyl-3-methyl-1H-pyrazole-5-carboxamido)-3,4-dihydro-5-oxa-1,2a-diazaacenaphthylen-3-yl)ethyl)carbamate] | –
1.76 | 37.64 | – | CCn1nc(C)cc1C(=O)Nc1nc2cc(C(N)=O)cc3c2n1[C@@H](CCCCNC(=O)OCc1ccccc1)CO3 [Example 17, Benzyl (S)-(4-(7-carbamoyl-2-(1-ethyl-3-methyl-1H-pyrazole-5-carboxamido)-3,4-dihydro-5-oxa-1,2a-diazaacenaphthylen-3-yl)butyl)carbamate] | –
2.18 | 8.87 | – | CCn1nc(C)cc1C(=O)Nc1nc2cc(C(N)=O)cc3c2n1C(C)(C)CO3 [Example 21, 2-(1-Ethyl-3-methyl-1H-pyrazole-5-carboxamido)-3,3-dimethyl-3,4-dihydro-5-oxa-1,2a-diazaacenaphthylene-7-carboxamide] | –
1.06 | 1.14 | – | CCn1nc(C)cc1C(=O)Nc1nc2cc(C(N)=O)cc3c2n1C(C)(CN(C)CCc1ccccc1)CO3 (stereo not drawn) [Example 29, 2-(1-Ethyl-3-methyl-1H-pyrazole-5-carboxamido)-3-methyl-3-((methyl(phenethyl)amino)methyl)-3,4-dihydro-5-oxa-1,2a-diazaacenaphthylene-7-carboxamide] | –
1.63 | 35.09 | – | CCn1nc(C)cc1C(=O)Nc1nc2cc(C(N)=O)cc3c2n1[C@@H](COCc1ccccc1)CO3 [Example 30, (S)-3-((Benzyloxy)methyl)-2-(1-ethyl-3-methyl-1H-pyrazole-5-carboxamido)-3,4-dihydro-5-oxa-1,2a-diazaacenaphthylene-7-carboxamide] | –
– | – | – | CCn1nc(C)cc1C(=O)Nc1nc2cc(C(N)=O)cc3c2n1[C@@H](CCNC(=O)/C=C/c1ccc(C#N)cc1)CO3 [Example 37, (S,E)-3-(2-(3-(4-cyanophenyl)acrylamido)ethyl)-2-(1-ethyl-3-methyl-1H-pyrazole-5-carboxamido)-3,4-dihydro-5-oxa-1,2a-diazaacenaphthylene-7-carboxamide] | Fold change related to DMSO control, WT (STING variants (WT); compound concentration 3.11 μM): 1.07 fold; Fold change related to DMSO control, HAQ (STING variants (HAQ); compound concentration 3.11 μM): 1.85 fold
2.96 | 22.76 | – | CCn1nc(C)cc1C(=O)Nc1nc2cc(C(N)=O)cc3c2n1[C@@H](CCNC(=O)/C=C/c1cccc(F)c1)CO3 [Example 38, (S,E)-2-(1-ethyl-3-methyl-1H-pyrazole-5-carboxamido)-3-(2-(3-(3-fluorophenyl)acrylamido)ethyl)-3,4-dihydro-5-oxa-1,2a-diazaacenaphthylene-7-carboxamide] | –
2.78 | 25.85 | – | CCn1nc(C)cc1C(=O)Nc1nc2cc(C(N)=O)cc3c2n1[C@@H](CCNC(=O)/C=C/c1ccccc1OC)CO3 [Example 39, (S,E)-2-(1-ethyl-3-methyl-1H-pyrazole-5-carboxamido)-3-(2-(3-(2-methoxyphenyl)acrylamido)ethyl)-3,4-dihydro-5-oxa-1,2a-diazaacenaphthylene-7-carboxamide] | –
– | – | – | CCn1nc(C)cc1C(=O)Nc1nc2cc(C(N)=O)cc3c2n1[C@@H](CCNC(=O)OCCc1ccccc1)CO3 [Example 42, Phenethyl (S)-(2-(7-carbamoyl-2-(1-ethyl-3-methyl-1H-pyrazole-5-carboxamido)-3,4-dihydro-5-oxa-1,2a-diazaacenaphthylen-3-yl)ethyl)carbamate] | Fold change related to DMSO control, WT (STING variants (WT); compound concentration 21.4 μM): 1.10 fold; Fold change related to DMSO control, HAQ (STING variants (HAQ); compound concentration 21.4 μM): 10.52 fold
– | – | 6.8 | CCn1nc(C)cc1C(=O)Nc1nc2cc(C(N)=O)cc3c2n1CC(C)(C)CN3CCOC [Example 73, 1-(1-ethyl-3-methyl-1H-pyrazole-5-carboxamido)-6-(2-methoxyethyl)-8,8-dimethyl-6,7,8,9-tetrahydro-2,6,9a-triazabenzo[cd]azulene-4-carboxamide] | –
– | – | 11.8 | CCn1nc(C)cc1C(=O)Nc1nc2cc(C(N)=O)cc3c2n1CC(C)(C)CN3CCCOC [Example 74, 1-(1-Ethyl-3-methyl-1H-pyrazole-5-carboxamido)-6-(3-methoxypropyl)-8,8-dimethyl-6,7,8,9-tetrahydro-2,6,9a-triazabenzo[cd]azulene-4-carboxamide] | –
– | – | 7.7 | CCn1nc(C)cc1C(=O)Nc1nc2cc(C(N)=O)cc3c2n1CC(C)(C)CN3CCOCc1ccccc1 [Example 75, 6-(2-(benzyloxy)ethyl)-1-(1-ethyl-3-methyl-1H-pyrazole-5-carboxamido)-8,8-dimethyl-6,7,8,9-tetrahydro-2,6,9a-triazabenzo[cd]azulene-4-carboxamide] | –
– | – | 9.9 | CCn1nc(C)cc1C(=O)Nc1nc2cc(C(N)=O)cc3c2n1CC(C)(C)CN3CCO [Example 76, 1-(1-ethyl-3-methyl-1H-pyrazole-5-carboxamido)-6-(2-hydroxyethyl)-8,8-dimethyl-6,7,8,9-tetrahydro-2,6,9a-triazabenzo[cd]azulene-4-carboxamide] | –
– | – | 20.8 | CCn1nc(C)cc1C(=O)Nc1nc2cc(C(N)=O)cc3c2n1CC1(CCC1)CO3 [Example 77, 1-(1-ethyl-3-methyl-1H-pyrazole-5-carboxamido)-7H,9H-6-oxa-2,9a-diazaspiro[benzo[cd]azulene-8,1′-cyclobutan]-1,2a,2a1(5a),4-tetraene-4-carboxamide] | –
– | – | 19 | CCn1nc(C)c(F)c1C(=O)Nc1nc2cc(C(N)=O)cc3c2n1CC1(CCC1)CO3 [Example 78, 1-(1-Ethyl-4-fluoro-3-methyl-1H-pyrazole-5-carboxamido)-7H,9H-6-oxa-2,9a-diazaspiro[benzo[cd]azulene-8,1′-cyclobutan]-1,2a,2a1(5a),4-tetraene-4-carboxamide] | –
